{"source": "paper PMC12284294", "about": "(iScience, 2025)", "key": {"[1]": {"test_system": "human polymorphonuclear granulocytes (PMN; neutrophils)", "format": "cell-based"}, "FPR1, FPR2, FPR3, PMN": {"test_system": "FPR1, FPR2, FPR3, PMN", "format": "cell-based, human"}, "FPR1": {"molecular_target": "T1, FPR1 (Homo sapiens, UniProt P21462)", "T1 construct": "expressed in transfected cells; host or cells: HEK293T", "T1 sequence (P21462 1-350)": "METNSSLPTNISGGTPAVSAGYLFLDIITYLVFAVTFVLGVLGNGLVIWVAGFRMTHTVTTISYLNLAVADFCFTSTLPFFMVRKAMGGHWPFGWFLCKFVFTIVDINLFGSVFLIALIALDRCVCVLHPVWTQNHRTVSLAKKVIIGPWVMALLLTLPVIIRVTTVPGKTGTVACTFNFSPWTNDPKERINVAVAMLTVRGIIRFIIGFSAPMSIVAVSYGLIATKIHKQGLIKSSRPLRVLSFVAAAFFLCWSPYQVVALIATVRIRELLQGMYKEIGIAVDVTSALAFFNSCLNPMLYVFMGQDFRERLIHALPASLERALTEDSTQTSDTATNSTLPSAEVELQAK", "format": "cell-based"}}, "data": [{"sequence": "GCLIGAEYVNNSYEC [Omicron Variant SCoV2_52, 15mer of Omicron spike pool library]", "values": [{"measurement": "significant PMN activators (group of the spike peptide pool screening)", "setting": "[1]; SARS-CoV-2 omicron B.1.1.529 spike pool peptides, 10 µM, PMN, n=6", "value": "significant PMN activators"}, {"measurement": "neutrophil calcium mobilization in library screening", "setting": "[1]; individual peptides 10 μM, n = 6", "value": "activator"}, {"measurement": "Match with activator (region): Receptor", "setting": "FPR1, FPR2, FPR3, PMN", "value": "PMN + FPR1"}, {"measurement": "significant FPR1 activators (group of the spike peptide pool screening)", "setting": "FPR1", "value": "significant FPR1 activators"}, {"measurement": "FPR1 calcium activation in library screening", "setting": "FPR1; individual peptides 10 μM, n = 3", "value": "activator"}]}]}
